# Reference: patent US20200352906A1, “Heterobicyclic Carboxylic Acids for Treating Cancer or Inflammatory Diseases” (Shenzhen Ionova Life Science Co., Ltd., priority 2018, published 2020)
# Columns and labels:
# [1] = test system: arthritis mice (AIA model); assay: In vivo anti-inflammatory activity, AIA arthritis model
# Method: Male Lewis Rates of 8-10 weeks old were fed with fixed amount of foods and free water at 20±2° C., under light in the 12-hour light and 12-hour darkness cycle and with the humidity of 45-70%. All mice were provided adjusted living for three days before they were used in test. 56 of such mice were divided into 7 groups with 8 mice in each group. One group was a control group and received only 1% CMCNa solution; one group was a model group and also received only 1% CMCNa solution; one group was a positive group and received Celecoxib at 18 mg/kg, and the other four groups received solutions of tested compound at the 1 mg/kg, 3 mg/kg, 10 mg/kg and […] dosages respectively.
# 1% CMC-Na was prepared with 1.00277 g of CMC-Na in 100 mL distilled water, heated with a 60° C. water bath until CMC-Na fully dissolved.
# 18 mg/kg Celecoxib capsule: 18.09 mg Celecoxib was placed into a grinder into which 10 mL 1% CMC-Na solution was added slowly. The mixture was ground until Celecoxib fully dissolved.
# 10 mg/kg C-003 solution: 10.08 mg of a tested compound (4-(1-{[2-Methyl-4-(4-trifluoromethyl-benzyl)-4H-thieno[3,2-b]pyrrole-3-carbonyl]-amino}-cyclopropyl)-benzoic acid diethanolamino salt, which is referred to hereinafter as INV-1120 diethanolamino salt) was added into a grinder, into which 10 mL 1% CMC-Na solution was slowly added until INV-1120 diethanolamino salt fully dissolved.
# 30 mg/kg INV-1120 solution: 30.3 mg of INV-1120 diethanolamino salt was added into a grinder, into which 10 mL 1% CMC-Na solution was slowly added until INV-1120 diethanolamino salt fully dissolved.
# 1 mg/kg INV-1120 was prepared by mixing 1.0 mL of 10 mg/kg INV-1120 diethanolamino salt solution with 9 mL 1% CMC-Na.
# 3 mg/kg INV-1120 was prepared by mixing 1.0 mL of 30 mg/kg INV-1120 diethanolamino salt solution with 9 mL 1% CMC-Na.
# After the mice were subject to Anesthesia, they were cleaned with medical alcohol at their right feet. The mice in the control group were administered with 50 uL PBS, and the mice of the other groups were treated at the right feet with 50 uL CDA solution. One day before the establishment of the model, the basic size (volume) of each mice was measured, the date of the model establishment was D1, test compound was administered at 1 mL/100 g to the stomach starting on D13 daily for 12 days (ending on D24).
# The mice were examined and photos were taken every three days for their water intakes, food intakes, and weights; every four days for their abilities to withstand weight at their rear feet; every three days for the swelling volumes and swelling thickness and temperatures of their feet, as well as their behaviors.
# [2] = test system: MC38 murine colon adenocarcinoma; assay: In vivo pharmacodynamic test on subcutaneous murine colon adenocarcinoma (MC38); parameters: species or system mice; settings: 60 mg/kg/day, after 15 days of treatment, p<0.0001 vs control
# Method: All animal studies were reviewed and approved by the Animal Care and Use Committee of Beth Israel Deaconess Medical Center, Boston, Mass. Animals were housed at a maximum of 5 animals per cage in a pathogen-free facility with unlimited access to sterile water and chow. Daily welfare evaluations and animal sacrifices were carried out according to the Committee guidelines. MC38 mouse colon adenocarcinoma cells (Kerafast, Boston, Mass., USA) were cultured in DMEM that was supplemented with 10% FBS, 1% GPS, 0.1 mM nonessential amino acids (MilliporeSigma), 1 mM sodium pyruvate (MilliporeSigma), 10 mM Hepes (MilliporeSigma), and […] gentamycin sulfate (MilliporeSigma). Adherent cells were trypsinized, pelleted, counted by hemocytometer, and injected into mice at 1×10^6 cells/mL in PBS.
# (§1) Cells were injected subcutaneously into the mid-dorsum of 6-week-old male C57BL/6 mice (The Jackson Laboratory, Bar Harbor, Me.) at 100 μL/mouse. Mice were systemically treated with Compound 1 (INV-1120, 60 mg/kg/day), anti-PD1 (200 ug Q 3 days), INV-1120 (60 mg/kg/day) and anti-PD1 (200 ug Q 3 days), or vehicle (0.45% methylcellulose) in a total volume of 100 μL via orally by gavage. Treatment initiated on day 10 post-tumor cell injection, when tumors reached approximately 2004 mm^3 to 224 mm^3. Tumor size was measured by caliper (width^2×length×0.52=mm^3).
# [3] = test system: B16F10 melanoma; assay: In vivo pharmacodynamic test on growth of B16F10 melanoma; parameters: species or system mice; settings: 90 mg/kg/day, after 8 days of treatment, p<0.001 vs control
# Method: as §1, with “B16F10 (1×10^6 cells)” for “Cells”, “90” for “60”, “(90” for “(60”, “100” for “2004”, “116” for “224”
# [4] = test system: Lewis lung carcinoma; assay: In vivo pharmacodynamic test on growth of LLC (Lewis Lung Cancer); parameters: species or system mice; settings: 90 mg/kg/day, after 9 days of treatment, p<0.01 vs control
# Method: as §1, with “LLC (1×10^6 cells)” for “Cells”, “INV-1120 (90” for “Compound 1 (INV-1120, 60”, “(90” for “(60”, “initiated” for “initiated on day 10 post-tumor cell injection,”, “249” for “2004”, “297” for “224”
# [5] = test system: colon cancer CT26 transplanted tumor; assay: In vivo pharmacodynamic test on growth of colon cancer CT26 transplanted tumor in mice
# Method: CT26 tumor cell line was maintained in vitro as monolayer culture in RPMI-1640 Media supplemented with 10% heat inactivated fetal calf serum at 37° C. in an atmosphere of 5% CO2 in air. The tumor cells were routinely sub-cultured twice weekly by trypsin-EDTA treatment, not to exceed 4-5 passages. The cells growing in an exponential growth phase were harvested and counted for tumor inoculation.
# Each mouse was inoculated subcutaneously on the right lower flank with the single cell suspension of 95% viable tumor cells (3×10^5) in 0.1 mL of serum-free RPMI 1640 Media for tumor development. Each mouse was administered with a test compound of this invention when mean tumor size reached approximately 100 mm^3. Each group consisted of 6 mice. The mice were randomized to different treatment groups as shown in the table under ‘Groups and Treatment’. The mice were lightly anesthetized before implantation. Care was taken to ensure subcutaneous delivery of cells by lifting up the fold of skin with sterilized forceps and injecting cells. Any tumors that completely or partially grew intradermally (ID) or intramuscularly (IM) were not used.
# CT26 cells were maintained in RPMI 1640 medium supplemented with 10% FBS at 37° C. and 5% CO2 atmosphere. Cell detachment was obtained using standard trypsinization methods, quantification of cell numbers and viability information using the NC-200 automated cell counter. Compound 1 (INV-1121) was thoroughly suspended in 0.5% methyl cellulose (MC) by sonication at 4° C. for 15 min before oral administration (p.o.) to animals. BALB/c mice were injected subcutaneously (s.c.) with live 1×10^5 […]. Mice developed tumors of approximately 36 mm^3 in 5 days. CT26 tumor-bearing mice were randomized and mapped into 5 groups of 10 mice each: group A received vehicle (0.5% MC); group B received 0.1 mg/kg of Compound 1; group C received 1 mg/kg of Compound 1, group D received 25 mg/kg of Compound 1; and group E received 150 mg/kg of Compound 1. All treatments were give Compound 1 p.o. daily for 21 consecutive days. Tumor volumes and body weights were measured twice weekly. Study was terminated 27 days after tumor cell injection. Tumor volumes were expressed as mean: t SEM. Tumor volume differences among treated mouse groups on day 27 were analyzed by the one-way ANOVA followed by Tukey's test. P<0.05 values were considered significant.
# For routine monitoring, all study animals were monitored not only tumor growth but also behavior such as mobility, food and water consumption (by cage side checking only), body weight (BW), eye/hair matting and any other abnormal effect. All mortality and/or abnormal clinical signs were recorded.
# Body weights of all animals are measured twice/week throughout the study. The measurement dates will specify as study design. Body weight change, expressed in %, was calculated using the following formula:
# BW change (%)=((BWDay X−BWDay 0)/BWDay 0)×100
# The measurement of tumor size was conducted twice/week with a caliper and the tumor volume (mm3) will be estimated using the formula: TV=a×b 2/2, where “a” and “b” is long and short diameters of a tumor, respectively. The TVs were used for calculation of the tumor growth inhibition (TGI, an indicator of antitumor effectiveness) value using the formula: TGI=(1−T/C)×100%, where “T” and “C” is the mean relative volumes (% tumor growth) of the tumors in the treated and the control groups, respectively. The experiment was terminated when the mean tumor volume exceeded 2000 mm3 or severe body weight loss.
# [6] = vs animals without administration of tested compounds
# [7] = Example 6, studies as described in Example 5, compared with Example 5
smiles,measurement,setting,value
"Cc1sc2ccn(Cc3ccc(C(F)(F)F)cc3)c2c1C(=O)NC1(c2ccc(C(=O)O)cc2)CC1.OCCNCCO [INV-1120 diethanolamino salt, 4-(1-{[2-Methyl-4-(4-trifluoromethyl-benzyl)-4H-thieno[3,2-b]pyrrole-3-carbonyl]-amino}-cyclopropyl)-benzoic acid diethanolamino salt]",temperatures of the feet,"[1]; 1, 3, 10 and 40 mg/kg to the stomach daily D13-D24, FIG. 5",had effect in lowering the temperatures
same,swelling (volumes and thickness) of the feet,"[1]; 1, 3, 10 and 40 mg/kg to the stomach daily D13-D24, FIG. 6",had effect in lowering the temperatures and swelling (both volumes and thickness)
same,"behavior patterns (e.g., balancing capability)","[1]; mouse, in vivo",improved behavior patterns
same,ability to withstand weight (rear feet),[1]; [6],greater weight gains and ability to withstand weight
same,weight gains,[1]; [6],greater weight gains
"Cc1sc2ccn(Cc3ccc(C(F)(F)F)cc3)c2c1C(=O)NC1(c2ccc(C(=O)O)cc2)CC1 [INV-1120, 4-(1-{[2-Methyl-4-(4-trifluoromethyl-benzyl)-4H-thieno[3,2-b]pyrrole-3-carbonyl]-amino}-cyclopropyl)-benzoic acid]",inhibition of primary tumor growth vs control,[2],inhibited primary MC38 murine colon adenocarcinoma
same,inhibition of primary melanoma growth vs control,[3],inhibited primary 16F10 melanoma growth
same,inhibition of primary Lewis lung carcinoma growth vs control,[4],inhibited primary Lewis lung carcinoma growth
"Cc1sc2ccn(Cc3ccc(C(F)(F)F)cc3)c2c1C(=O)NC1(c2ccc(C(=O)O)cc2)CC1.NC(CO)(CO)CO [4-(1-{[2-Methyl-4-(4-trifluoromethyl-benzyl)-4H-thieno[3,2-b]pyrrole-3-carbonyl]-amino}-cyclopropyl)-benzoic acid tris(hydroxymethyl)aminomethane salt]",balancing or coordination ability after treatment,[1]; [7],better balancing or coordination ability
same,reduction of swelling on the arthritis feet,[1]; [7],even more effective reduction of swelling
O=C(O)c1ccc(C2(NC(=O)c3csc4ccn(Cc5ccc(C(F)(F)F)cc5)c34)CC2)cc1 [INV-1121],tumor growth inhibition,[5]; 0.1 mg/kg p.o. daily,"some inhibition was observed, but without statistical significance"
same,tumor growth inhibition,[5]; 1.0 mg/kg p.o. daily,"some inhibition was observed, but without statistical significance"
same,anti-tumor activity,[5]; 25 mg/kg p.o. daily,significant and comparable anti-tumor activity
same,anti-tumor activity,[5]; 150 Mg/kg p.o. daily,significant and comparable anti-tumor activity
same,gross toxicity judged from animal body weight and overall animal behavior,"[5]; all doses tested, 0.1-150 mg/kg p.o. daily",None of the doses tested showed gross toxicity
same,"tumor growth inhibition, dose dependence","[5]; daily oral administration, range 0.1 mg/kg-150 mg/kg, 21 consecutive days, FIG. 1",inhibited the tumor growth in a dose-dependent manner
